Where a SMILES comes first, the peptide text is derived from it. Bridges are numbered along the chain shown (N, C = ends). [ ]: non-standard residue; d: D form. The star is where a group is joined. Ala(1-amidino-4-piperidyl) = N=C(N)N1CCC(C[C@H](N)C(=O)O)CC1; Bip(3'-COOH) = N[C@@H](Cc1ccc(-c2cccc(C(=O)O)c2)cc1)C(=O)O; Phe(3,4,5-F3) = N[C@@H](Cc1cc(F)c(F)c(F)c1)C(=O)O; Phe(4-COOH) = N[C@@H](Cc1ccc(C(=O)O)cc1)C(=O)O; Bip = N[C@@H](Cc1ccc(-c2ccccc2)cc1)C(=O)O; Phe(3-OMe) = COc1cccc(C[C@H](N)C(=O)O)c1; Phe(3-Me) = Cc1cccc(C[C@H](N)C(=O)O)c1; Val(3-OH) = CC(C)(O)[C@H](N)C(=O)O; aIle = CC[C@@H](C)[C@H](N)C(=O)O; 4Pal = N[C@@H](Cc1ccncc1)C(=O)O; 3Thi = N[C@@H](Cc1ccsc1)C(=O)O; Cha = N[C@@H](CC1CCCCC1)C(=O)O; Cit = NC(=O)NCCC[C@H](N)C(=O)O; Gly(cPr) = N[C@H](C(=O)O)C1CC1; dCha = N[C@H](CC1CCCCC1)C(=O)O; Carboxymethyl = O=C(O)C*; Orn = NCCC[C@H](N)C(=O)O; Dab = NCC[C@H](N)C(=O)O; Dap = NC[C@H](N)C(=O)O
target: T1, human PD-1 / PD-L1-Ig binding on Jurkat cell line over-expressing human PD-1 (Jurkat-PD-1) (Homo sapiens, UniProt Q15116); assay: Jurkat-PD-1 Cell Binding High-Content Screening Assay (CBA); format: cell-based; settings: Jurkat-PD-1 cells, PE-labeled PD-L1-Ig 20 nM final; read-out: Jurkat HPD1_PDL1 IC50
T1 construct: expressed in transfected cells; host or cells: Jurkat
Procedure, shortened: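 Compounds were preincubated with Jurkat-hPD-1 cells in DMEM plus 10% fetal calf serum for 2 h at 37° C. Phycoerythrin-labeled PD-L1-Ig (20 nM final) was then added for 1 hour. Cells were fixed in 4% paraformaldehyde with Hoechst 33342, and bound fluorescence was quantified by high-content imaging.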

T1 sequence (Q15116 25-288): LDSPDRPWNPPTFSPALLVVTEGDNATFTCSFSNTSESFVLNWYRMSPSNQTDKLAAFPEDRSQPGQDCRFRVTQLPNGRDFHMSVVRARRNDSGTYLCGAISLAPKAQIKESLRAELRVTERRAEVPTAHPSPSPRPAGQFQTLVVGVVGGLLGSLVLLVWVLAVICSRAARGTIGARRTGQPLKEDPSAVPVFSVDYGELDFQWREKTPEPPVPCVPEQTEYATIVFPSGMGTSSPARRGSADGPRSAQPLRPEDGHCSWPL

SMILES | IC50
COc1cccc(C[C@@H]2NC(=O)[C@H](CC(=O)O)NC(=O)[C@H](Cc3ccc(C(=O)O)cc3)NC(=O)[C@H](Cc3ccncc3)NC(=O)CSC[C@@H](C(=O)N[C@@H](C)C(N)=O)NC(=O)[C@H]([C@@H](C)O)NC(=O)[C@H](C(C)C)NC(=O)[C@H](CC(C)C)NC(=O)[C@H](CCN)NC(=O)[C@@H](CC(C)C)NC(=O)[C@H](CCCN)NC(=O)[C@H](C(C)C)NC(=O)[C@H](Cc3ccc(-c4ccccc4)cc3)NC(=O)[C@H](C(C)C)NC2=O)c1 [Compound 1183] ({CH2CO}-[4Pal][Phe(4-COOH)]D[Phe(3-OMe)]V[Bip]V[Orn][dL][Dab]LVTCA-NH2; thioether N-14) | 6.1 nM
Cc1cccc(C[C@@H]2NC(=O)[C@H](CC(=O)O)NC(=O)[C@H](Cc3ccc(C(=O)O)cc3)NC(=O)[C@H](Cc3ccsc3)NC(=O)CSC[C@@H](C(=O)N[C@H](CC(N)=O)C(N)=O)NC(=O)[C@H](CO)NC(=O)[C@H](C(C)(C)O)NC(=O)[C@H](CC3CCCCC3)NC(=O)[C@H](CCN)NC(=O)[C@@H](CC(C)C)NC(=O)[C@H](CCCN)NC(=O)[C@H](Cc3ccc(C(=O)O)cc3)NC(=O)[C@H](Cc3ccc(-c4ccccc4)cc3)NC(=O)[C@H](Cc3ccc(OCC(=O)O)cc3)NC2=O)c1 [Compound 2656] ({CH2CO}-[3Thi][Phe(4-COOH)]D[Phe(3-Me)]Y(Carboxymethyl)[Bip][Phe(4-COOH)][Orn][dL][Dab][Cha][Val(3-OH)]SC[dN]-NH2; thioether N-14) | 25 nM
CC(C)C[C@@H]1NC(=O)[C@H](CCCNC(=N)N)NC(=O)[C@@H](CC(C)C)NC(=O)[C@H](CCCN)NC(=O)[C@H](CCCNC(=N)N)NC(=O)[C@H](Cc2ccc(-c3ccccc3)cc2)NC(=O)[C@H](C(C)C)NC(=O)[C@H](Cc2c[nH]c3ccccc23)NC(=O)[C@H](CC(=O)O)NC(=O)[C@H](Cc2ccc(O)cc2)NC(=O)[C@H](CC(N)=O)NC(=O)CSC[C@@H](C(=O)N[C@@H](C)C(N)=O)NC(=O)[C@H]([C@@H](C)O)NC(=O)[C@H](C(C)C)NC1=O [Compound 1012] ({CH2CO}-NYDWV[Bip]R[Orn][dL]RLVTCA-NH2; thioether N-14) | 43.6 nM
CC(C)C[C@H]1NC(=O)[C@H](CCCN)NC(=O)[C@H](C(C)C)NC(=O)[C@H](Cc2ccc(-c3ccccc3)cc2)NC(=O)[C@H](C(C)C)NC(=O)[C@H](Cc2c[nH]c3ccccc23)NC(=O)[C@H](CC(=O)O)NC(=O)[C@H](Cc2ccc(C(=O)O)cc2)NC(=O)[C@H](Cc2ccc(OCC(=O)O)cc2)NC(=O)CSC[C@@H](C(=O)N[C@@H](C)C(N)=O)NC(=O)[C@H]([C@@H](C)O)NC(=O)[C@H](C(C)C)NC(=O)[C@H](Cc2ccccc2)NC(=O)[C@H](CCN)NC1=O [Compound 1662] ({CH2CO}-Y(Carboxymethyl)[Phe(4-COOH)]DWV[Bip]V[Orn][dL][Dab]FVTCA-NH2; thioether N-14) | 27.4 nM
CC[C@H](C)[C@@H]1NC(=O)[C@H](Cc2ccc(-c3ccccc3)cc2)NC(=O)[C@H](C(C)C)NC(=O)[C@H](Cc2c[nH]c3ccccc23)NC(=O)[C@H](CC(=O)O)NC(=O)[C@H](Cc2ccc(O)cc2)NC(=O)[C@H](CC(N)=O)NC(=O)CSC[C@@H](C(=O)NCC(N)=O)NC(=O)[C@H](CO)NC(=O)[C@H](C(C)C)NC(=O)[C@H](CC(C)C)NC(=O)[C@H](CCN)NC(=O)[C@@H](CC(C)C)NC(=O)[C@H](CCCCN)NC1=O [Compound 1122] ({CH2CO}-NYDWV[Bip]IK[dL][Dab]LVSCG-NH2; thioether N-14) | 16.2 nM
CC[C@@H](C)[C@@H]1NC(=O)[C@H](Cc2ccc(-c3ccccc3)cc2)NC(=O)[C@H](C(C)C)NC(=O)[C@H](Cc2c[nH]c3ccccc23)NC(=O)[C@H](CC(=O)O)NC(=O)[C@H](Cc2ccc(O)cc2)NC(=O)[C@H](CC(N)=O)NC(=O)CSC[C@@H](C(=O)N[C@@H](C)C(N)=O)NC(=O)[C@H]([C@@H](C)O)NC(=O)[C@H](C(C)C)NC(=O)[C@H](CC2CCCCC2)NC(=O)[C@H](CCN)NC(=O)[C@@H](CC2CCCCC2)NC(=O)[C@H](CCCN)NC1=O [Compound 1631] ({CH2CO}-NYDWV[Bip][aIle][Orn][dCha][Dab][Cha]VTCA-NH2; thioether N-14) | 44.1 nM
CC(C)C[C@@H]1NC(=O)[C@H](CCN)NC(=O)[C@@H](CC(C)C)NC(=O)[C@H](CCCN)NC(=O)[C@H](CCCNC(N)=O)NC(=O)[C@H](Cc2ccc(-c3ccccc3)cc2)NC(=O)[C@H](C(C)C)NC(=O)[C@H](Cc2c[nH]c3ccccc23)NC(=O)[C@H](CC(N)=O)NC(=O)[C@H](Cc2ccc(O)cc2)NC(=O)[C@H](CN)NC(=O)CSC[C@@H](C(=O)N[C@@H](C)C(N)=O)NC(=O)[C@H]([C@@H](C)O)NC(=O)[C@H](C(C)C)NC1=O [Compound 1088] ({CH2CO}-[Dap]YNWV[Bip][Cit][Orn][dL][Dab]LVTCA-NH2; thioether N-14) | 23.7 nM

Further lines, results first:

IC50 | SMILES
19.5 nM | CC[C@H](C)[C@@H]1NC(=O)[C@H](Cc2ccc(-c3ccccc3)cc2)NC(=O)[C@H](C(C)C)NC(=O)[C@H](Cc2c[nH]c3ccccc23)NC(=O)[C@H](CC(=O)O)NC(=O)[C@H](Cc2ccc(OCC(=O)O)cc2)NC(=O)[C@H](CN)NC(=O)CSC[C@@H](C(=O)N[C@@H](C)C(N)=O)NC(=O)[C@H]([C@@H](C)O)NC(=O)[C@H](C(C)C)NC(=O)[C@H](Cc2ccccc2)NC(=O)[C@H](CCN)NC(=O)[C@@H](CC(C)C)NC(=O)[C@H](CCCN)NC1=O [Compound 1658] ({CH2CO}-[Dap]Y(Carboxymethyl)DWV[Bip]I[Orn][dL][Dab]FVTCA-NH2; thioether N-14)
9.1 nM | CC[C@H](C)[C@@H]1NC(=O)[C@H](Cc2c[nH]c3ccccc23)NC(=O)[C@H](CC(=O)O)NC(=O)[C@H](Cc2ccc(OCC(=O)O)cc2)NC(=O)[C@H](CN)NC(=O)CSC[C@@H](C(=O)N[C@@H](C)C(N)=O)NC(=O)[C@H]([C@@H](C)O)NC(=O)[C@H](C(C)C)NC(=O)[C@H](CC2CCCCC2)NC(=O)[C@H](CCN)NC(=O)[C@@H](CC(C)C)NC(=O)[C@H](CCCN)NC(=O)[C@H](CCCNC(N)=O)NC(=O)[C@H](Cc2ccc(-c3ccccc3)cc2)NC1=O [Compound 1316] ({CH2CO}-[Dap]Y(Carboxymethyl)DWI[Bip][Cit][Orn][dL][Dab][Cha]VTCA-NH2; thioether N-14)
7.8 nM | CC(C)C[C@H]1NC(=O)[C@H](CCCN)NC(=O)[C@H](CCCNC(N)=O)NC(=O)[C@H](Cc2ccc(-c3ccccc3)cc2)NC(=O)[C@H](C(C)C)NC(=O)[C@H](Cc2c[nH]c3ccccc23)NC(=O)[C@H](CC(=O)O)NC(=O)[C@H](Cc2ccc(-c3cccc(C(=O)O)c3)cc2)NC(=O)[C@H](CN)NC(=O)CSC[C@@H](C(=O)N[C@@H](C)C(N)=O)NC(=O)[C@H]([C@@H](C)O)NC(=O)[C@H](C(C)C)NC(=O)[C@H](CC2CCCCC2)NC(=O)[C@H](CCN)NC1=O [Compound 2090] ({CH2CO}-[Dap][Bip(3'-COOH)]DWV[Bip][Cit][Orn][dL][Dab][Cha]VTCA-NH2; thioether N-14)
34.2 nM | CC(C)C[C@H]1NC(=O)[C@H](CCCN)NC(=O)[C@H](CCC(=O)O)NC(=O)[C@H](Cc2ccc(-c3ccccc3)cc2)NC(=O)[C@H](C(C)C)NC(=O)[C@H](Cc2c[nH]c3ccccc23)NC(=O)[C@H](CC(=O)O)NC(=O)[C@H](Cc2ccc(OCC(=O)O)cc2)NC(=O)[C@H](CN)NC(=O)CSC[C@@H](C(=O)N[C@@H](C)C(N)=O)NC(=O)[C@H]([C@@H](C)O)NC(=O)[C@H](C(C)C)NC(=O)[C@H](CC2CCCCC2)NC(=O)[C@H]([C@@H](C)O)NC1=O [Compound 1517] ({CH2CO}-[Dap]Y(Carboxymethyl)DWV[Bip]E[Orn][dL]T[Cha]VTCA-NH2; thioether N-14)
17.7 nM | CC[C@H](C)[C@@H]1NC(=O)[C@H](Cc2ccc(-c3ccccc3)cc2)NC(=O)[C@H](C2CC2)NC(=O)[C@H](Cc2c[nH]c3ccccc23)NC(=O)[C@H](CC(=O)O)NC(=O)[C@H](Cc2ccc(OCC(=O)O)cc2)NC(=O)[C@H](CN)NC(=O)CSC[C@@H](C(=O)N[C@@H](C)C(N)=O)NC(=O)[C@H]([C@@H](C)O)NC(=O)[C@H](C(C)C)NC(=O)[C@H](CC2CCCCC2)NC(=O)[C@H](CCN)NC(=O)[C@@H](CC(C)C)NC(=O)[C@H](CCCN)NC1=O [Compound 1724] ({CH2CO}-[Dap]Y(Carboxymethyl)DW[Gly(cPr)][Bip]I[Orn][dL][Dab][Cha]VTCA-NH2; thioether N-14)
150 nM | CC(C)C[C@H]1NC(=O)[C@H](CCCN)NC(=O)[C@H](CCC(=O)O)NC(=O)[C@H](Cc2ccc(-c3ccccc3)cc2)NC(=O)[C@H](C(C)C)NC(=O)[C@H](Cc2c[nH]c3ccccc23)NC(=O)[C@H](CC(=O)O)NC(=O)[C@H](Cc2ccc(OCC(=O)O)cc2)NC(=O)[C@H](CN)NC(=O)CSC[C@@H](C(=O)N[C@@H](C)C(N)=O)NC(=O)[C@H]([C@@H](C)O)NC(=O)[C@H](C(C)C)NC(=O)[C@H](Cc2cc(F)c(F)c(F)c2)NC(=O)[C@H](CCN)NC1=O [Compound 1480] ({CH2CO}-[Dap]Y(Carboxymethyl)DWV[Bip]E[Orn][dL][Dab][Phe(3,4,5-F3)]VTCA-NH2; thioether N-14)
15.9 nM | CC(C)C[C@H]1NC(=O)[C@H](CCCN)NC(=O)[C@H](CCCNC(N)=O)NC(=O)[C@H](Cc2ccc(-c3ccccc3)cc2)NC(=O)[C@H](C(C)C)NC(=O)[C@H](Cc2c[nH]c3ccccc23)NC(=O)[C@H](CC(=O)O)NC(=O)[C@H](Cc2ccc(OCC(=O)O)cc2)NC(=O)[C@H](CC2CCN(C(=N)N)CC2)NC(=O)CSC[C@@H](C(=O)N[C@@H](C)C(N)=O)NC(=O)[C@H](CO)NC(=O)[C@H](C(C)C)NC(=O)[C@H](CC2CCCCC2)NC(=O)[C@H](CN)NC1=O [Compound 2504] ({CH2CO}-[Ala(1-amidino-4-piperidyl)]Y(Carboxymethyl)DWV[Bip][Cit][Orn][dL][Dap][Cha]VSCA-NH2; thioether N-14)

Reference: US20250163104A1, “MACROCYCLIC IMMUNOMODULATORS” (priority 2021, published 2025)
